The values below come from patent publication US20260092074A1, “Annelated Pyridines as Steroidogenesis Inhibitors, Preparation Method and Use Thereof” (Guangzhou Vinnocent Pharmaceutical Limited, priority 2022, published 2026).

One assay has as its target T1, human CYP11B2 (Homo sapiens, UniProt P19099).
T1 construct: expressed in transfected cells
T1 sequence (P19099 25-503): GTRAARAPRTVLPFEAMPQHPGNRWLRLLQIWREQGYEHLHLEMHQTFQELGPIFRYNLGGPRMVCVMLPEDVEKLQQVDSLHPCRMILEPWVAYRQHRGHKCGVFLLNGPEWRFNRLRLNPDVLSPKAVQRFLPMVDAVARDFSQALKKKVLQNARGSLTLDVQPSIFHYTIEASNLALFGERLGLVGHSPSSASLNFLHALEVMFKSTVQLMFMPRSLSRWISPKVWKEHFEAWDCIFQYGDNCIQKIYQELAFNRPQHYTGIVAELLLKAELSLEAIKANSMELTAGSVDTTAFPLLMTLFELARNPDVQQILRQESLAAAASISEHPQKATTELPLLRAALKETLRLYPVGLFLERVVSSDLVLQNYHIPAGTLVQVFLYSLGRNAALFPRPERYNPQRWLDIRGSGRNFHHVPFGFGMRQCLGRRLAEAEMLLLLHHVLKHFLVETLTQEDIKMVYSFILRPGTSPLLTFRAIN
Kind of assay: Inhibition of hCYP11B2 in transfected V79 cells. It counts as cell-based. As to conditions: hamster V79 cells expressing human CYP11B2; substrate 11-deoxycorticosterone 200 nM. The protocol:
(§1) Genes of human CYP11B2 and rat NADPH-P450 reductase were transfected into hamster V79 cells using a lentivirus vector, and stably-expressing cell lines were selected by taking advantages of the associated puromycin-resistance gene. Cultured cells were diluted and seeded in a 96-well plate with an amount of approximately 10,000 per well. After pre-incubation with suitable concentrations of the test compounds for 2 hours, 11-deoxycorticosterone of 200 nM was added as the substrate to initiate the catalytic reaction. After further incubation for 30 minutes, it was quenched with ethyl acetate. Subsequently, the substrate and product(s) were quantified using LC-MS/MS or HPLC at 260 nm, and the IC50 values were calculated according to inhibitory percentage.

Another assay addresses T2, human CYP11B1 (Homo sapiens, UniProt P15538).
T2 construct: expressed in transfected cells
T2 sequence (P15538 25-503): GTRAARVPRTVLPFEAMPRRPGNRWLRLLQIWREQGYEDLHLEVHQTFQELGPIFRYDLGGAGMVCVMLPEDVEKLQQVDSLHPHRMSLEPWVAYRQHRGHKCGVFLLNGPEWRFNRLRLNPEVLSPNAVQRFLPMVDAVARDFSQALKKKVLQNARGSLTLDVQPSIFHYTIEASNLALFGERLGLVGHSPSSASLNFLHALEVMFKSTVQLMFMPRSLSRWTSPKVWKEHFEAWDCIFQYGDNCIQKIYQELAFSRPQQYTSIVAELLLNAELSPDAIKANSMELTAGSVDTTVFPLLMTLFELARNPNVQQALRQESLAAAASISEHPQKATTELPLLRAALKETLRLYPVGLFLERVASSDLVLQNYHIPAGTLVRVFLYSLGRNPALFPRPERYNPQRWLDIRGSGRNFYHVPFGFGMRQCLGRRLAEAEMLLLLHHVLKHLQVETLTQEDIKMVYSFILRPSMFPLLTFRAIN
Description: Inhibition of hCYP11B1 in transfected V79 cells. It counts as cell-based. As to conditions: hamster V79 cells expressing human CYP11B1; substrate 11-deoxycortisol 200 nM. The method, then:
as §1, with “CYP11B1” for “CYP11B2”, “11-deoxycortisol” for “11-deoxycorticosterone”

What is called IC50 is the concentration needed to halve the response being measured. For `CCC(=O)N[C@@H]1CCCc2c(-c3ccc4c(c3)CCC(=O)N4C)cncc21` [Baxdrostat, reference compound], the IC50 against human CYP11B2 turned out to be 127 nM; against human CYP11B1, 3060 nM.

On to `Cc1ccc(S(=O)(=O)N2CCc3c(-c4ccc(C#N)cc4)cncc32)cc1` [C1, 4-(1-Tosyl-2,3-dihydro-1H-pyrrolo[2,3-c]pyridin-4-yl)benzonitrile], for which the values for the concentration for half-maximal inhibition (IC50) on human CYP11B2 and at human CYP11B1 were 0.24 nM and 0.56 nM, respectively.

Take `N#Cc1ccc(-c2cncc3c2CCN3S(=O)(=O)c2ccc([N+](=O)[O-])cc2)cc1` [C2, 4-(1-((4-Nitrophenyl)sulfonyl)-2,3-dihydro-1H-pyrrolo[2,3-c]pyridin-4-yl)benzonitrile]: the figures for the half-inhibitory concentration (IC50) against human CYP11B2 and on human CYP11B1 were 0.12 nM and 0.35 nM, respectively.

In the case of `COc1ccc(S(=O)(=O)N2CCc3c(-c4ccc(C#N)cc4)cncc32)cc1` [C3, 4-(1-((4-Methoxyphenyl)sulfonyl)-2,3-dihydro-1H-pyrrolo[2,3-c]pyridin-4-yl)benzonitrile], the half-maximal inhibitory concentration (IC50) amounted to 0.16 nM at human CYP11B2 and 0.2 nM at human CYP11B1.

In the case of `N#Cc1ccc(-c2cncc3c2CCN3S(=O)(=O)c2ccc(C(F)(F)F)cc2)cc1` [C4, 4-(1-((4-(Trifluoromethyl)phenyl)sulfonyl)-2,3-dihydro-1H-pyrrolo[2,3-c]pyridin-4-yl)benzonitrile], the results for the half-inhibitory concentration (IC50) against human CYP11B2 and against human CYP11B1 were 0.64 nM and 0.36 nM, respectively.

Consider `N#Cc1ccc(-c2cncc3c2CCN3S(=O)(=O)c2ccc(Cl)nc2)cc1` [C5, 4-(1-((6-Chloropyridin-3-yl)sulfonyl)-2,3-dihydro-1H-pyrrolo[2,3-c]pyridin-4-yl)benzonitrile], for which the IC50 at human CYP11B2 stood at 0.4 nM; against human CYP11B1, 1.1 nM.

As for `N#Cc1ccc(-c2cncc3c2CCN3S(=O)(=O)c2cccc(F)c2)cc1` [C6, 4-(1-((3-Fluorophenyl)sulfonyl)-2,3-dihydro-1H-pyrrolo[2,3-c]pyridin-4-yl)benzonitrile], the IC50 at human CYP11B2 is 0.3 nM; against human CYP11B1, 1.2 nM.

`N#Cc1ccc(-c2cncc3c2CCN3S(=O)(=O)c2ccc(F)cc2)cc1` [C7, 4-(1-((4-Fluorophenyl)sulfonyl)-2,3-dihydro-1H-pyrrolo[2,3-c]pyridin-4-yl)benzonitrile]: the IC50 at human CYP11B2 worked out at 0.15 nM; against human CYP11B1, 1.9 nM.

Consider `Cc1cccc(S(=O)(=O)N2CCc3c(-c4ccc(C#N)cc4)cncc32)c1` [C8, 4-(1-(m-Tolylsulfonyl)-2,3-dihydro-1H-pyrrolo[2,3-c]pyridin-4-yl)benzonitrile], for which the IC50 came to 1.4 nM at human CYP11B2 and 0.25 nM against human CYP11B1.

On to `N#Cc1ccc(-c2cncc3c2CCN3S(=O)(=O)c2cccc([N+](=O)[O-])c2)cc1` [C9, 4-(1-((3-Nitrophenyl)sulfonyl)-2,3-dihydro-1H-pyrrolo[2,3-c]pyridin-4-yl)benzonitrile], for which the concentration for half-maximal inhibition (IC50) against human CYP11B2 came to 0.3 nM; on human CYP11B1, 0.5 nM.

As for `N#Cc1ccc(-c2cncc3c2CCN3S(=O)(=O)c2cccnc2)cc1` [C10, 4-(1-(Pyridin-3-ylsulfonyl)-2,3-dihydro-1H-pyrrolo[2,3-c]pyridin-4-yl)benzonitrile], the concentration for half-maximal inhibition (IC50) at human CYP11B2 was 1.3 nM; against human CYP11B1, 1.7 nM.

As to `N#Cc1ccc(-c2cncc3c2CCN3S(=O)(=O)c2cccc3cccnc23)cc1` [C11, 4-(1-(Quinolin-8-ylsulfonyl)-2,3-dihydro-1H-pyrrolo[2,3-c]pyridin-4-yl)benzonitrile], the IC50 was determined as 1 nM at human CYP11B2 and 0.7 nM against human CYP11B1.

As for `N#Cc1ccc(-c2cncc3c2CCN3S(=O)(=O)c2ccc3ccccc3c2)cc1` [C12, 4-(1-(Naphthalen-2-ylsulfonyl)-2,3-dihydro-1H-pyrrolo[2,3-c]pyridin-4-yl)benzonitrile], the IC50 against human CYP11B2 was determined as 0.17 nM; at human CYP11B1, 0.3 nM.

In the case of `N#Cc1ccc(-c2cncc3c2CCN3S(=O)(=O)c2ccc(Cl)cc2)cc1` [C13, 4-(1-((4-Chlorophenyl)sulfonyl)-2,3-dihydro-1H-pyrrolo[2,3-c]pyridin-4-yl)benzonitrile], the IC50 against human CYP11B2 stood at 0.6 nM; against human CYP11B1 it was 0.2 nM.

As to `N#Cc1ccc(-c2cncc3c2CCN3S(=O)(=O)c2cccc(Cl)c2)cc1` [C14, 4-(1-((3-Chlorophenyl)sulfonyl)-2,3-dihydro-1H-pyrrolo[2,3-c]pyridin-4-yl)benzonitrile], the half-inhibitory concentration (IC50) was 0.5 nM against human CYP11B2 and 0.9 nM on human CYP11B1.

In the case of `N#Cc1ccc(-c2cncc3c2CCN3S(=O)(=O)c2ccc(C#N)cc2)cc1` [C15, 4-((4-(4-Cyanophenyl)-2,3-dihydro-1H-pyrrolo[2,3-c]pyridin-1-yl)sulfonyl)benzonitrile], the values for the half-maximal inhibitory concentration (IC50) at human CYP11B2 and against human CYP11B1 were 0.28 nM and 0.16 nM, respectively.

Turning to `N#Cc1ccc(-c2cncc3c2CCN3S(=O)(=O)c2cccc(C#N)c2)cc1` [C16, 3-((4-(4-Cyanophenyl)-2,3-dihydro-1H-pyrrolo[2,3-c]pyridin-1-yl)sulfonyl)benzonitrile], the IC50 is 1.5 nM against human CYP11B2 and 0.18 nM against human CYP11B1.

On to `N#Cc1ccc(-c2cncc3c2CCN3S(=O)(=O)c2cccs2)cc1` [C17, 4-(1-(Thiophen-2-ylsulfonyl)-2,3-dihydro-1H-pyrrolo[2,3-c]pyridin-4-yl)benzonitrile], for which the IC50 against human CYP11B2 worked out at 3.5 nM; on human CYP11B1, 7.8 nM.

In the case of `N#Cc1ccc(-c2cncc3c2CCN3S(=O)(=O)c2cccc3ccccc23)cc1` [C18, 4-(1-(Naphthalen-1-ylsulfonyl)-2,3-dihydro-1H-pyrrolo[2,3-c]pyridin-4-yl)benzonitrile], the half-maximal inhibitory concentration (IC50) was determined as 0.69 nM on human CYP11B2 and 0.61 nM on human CYP11B1.

Take `COc1cccc(S(=O)(=O)N2CCc3c(-c4ccc(C#N)cc4)cncc32)c1` [C19, 4-(1-((3-Methoxyphenyl)sulfonyl)-2,3-dihydro-1H-pyrrolo[2,3-c]pyridin-4-yl)benzonitrile]: the half-inhibitory concentration (IC50) on human CYP11B2 stood at 4.3 nM; at human CYP11B1 it was 9.5 nM.

With `N#Cc1ccc(-c2cncc3c2CCN3S(=O)(=O)c2cccc(C(F)(F)F)c2)cc1` [C20, 4-(1-((3-[Trifluoromethyl]phenyl)sulfonyl)-2,3-dihydro-1H-pyrrolo[2,3-c]pyridin-4-yl)benzonitrile], the figures for the IC50 against human CYP11B2 and against human CYP11B1 were 1.8 nM and 0.4 nM, respectively.

For `N#Cc1ccc(-c2cncc3c2CCN3S(=O)(=O)c2ccccc2)cc1` [C21, 4-(1-(Phenylsulfonyl)-2,3-dihydro-1H-pyrrolo[2,3-c]pyridin-4-yl)benzonitrile], the 50% inhibitory concentration (IC50) against human CYP11B2 and on human CYP11B1 was 0.01 nM throughout.

Regarding `N#Cc1ccc(-c2cncc3c2CCN3C(=O)c2ccc(C(F)(F)F)cc2)cc1` [C22, 4-(1-(4-(Trifluoromethyl)benzoyl)-2,3-dihydro-1H-pyrrolo[2,3-c]pyridin-4-yl)benzonitrile], the IC50 against human CYP11B2 stood at 2 nM; on human CYP11B1, 112 nM.

Take `N#Cc1ccc(-c2cncc3c2CCN3C(=O)c2cccc(C(F)(F)F)c2)cc1` [C23, 4-(1-(3-(Trifluoromethyl)benzoyl)-2,3-dihydro-1H-pyrrolo[2,3-c]pyridin-4-yl)benzonitrile]: the IC50 on human CYP11B2 turned out to be 7 nM; at human CYP11B1, 310 nM.

Take `COc1ccc(C(=O)N2CCc3c(-c4ccc(C#N)cc4)cncc32)cc1` [C24, 4-(1-(4-Methoxybenzoyl)-2,3-dihydro-1H-pyrrolo[2,3-c]pyridin-4-yl)benzonitrile]: the IC50 against human CYP11B2 was 2.3 nM; against human CYP11B1, 124 nM.

In the case of `N#Cc1ccc(-c2cncc3c2CCN3C(=O)c2ccc(F)cc2)cc1` [C25, 4-(1-(4-Fluorobenzoyl)-2,3-dihydro-1H-pyrrolo[2,3-c]pyridin-4-yl)benzonitrile], the 50% inhibitory concentration (IC50) on human CYP11B2 was determined as 30 nM; against human CYP11B1, 988 nM.

Take `COc1cccc(C(=O)N2CCc3c(-c4ccc(C#N)cc4)cncc32)c1` [C26, 4-(1-(3-Methoxybenzoyl)-2,3-dihydro-1H-pyrrolo[2,3-c]pyridin-4-yl)benzonitrile]: the half-maximal inhibitory concentration (IC50) at human CYP11B2 was found to be 2.3 nM; on human CYP11B1, 356 nM.
